Results reported in patent publication US12398178B2, “Collections of peptides, peptide agents, and methods of use thereof” (Parabilis Medicines, Inc., priority 2018, dated 2025).
Starred links: 1 amine or outer side, 2 acyl side, 3 side chain; linkers in the order of their positions; H or OH if unused. Positions of bridges follow the written chain, without caps; N, C: chain ends. Residues, ends and D or L forms follow the SMILES beside them. X4 = O=C(C[*:1])O[C@H]1CC[C@@H](OC(=O)C[*:2])CC1; X9 = O=C(C[*:1])O[C@@H]1CCC[C@H](OC(=O)C[*:2])C1; X6 = O=C(C[*:1])Nc1cc(Cl)c(NC(=O)C[*:2])cc1Cl; X8 = COc1cc(NC(=O)C[*:2])c(OC)cc1NC(=O)C[*:1]; X3 = O=C(C[*:1])Nc1ccccc1NC(=O)C[*:2]

How the values were obtained:
[1] = molecular target: T1, full-length β-Catenin (Homo sapiens, UniProt P35222); assay: Competition fluorescence polarization assay for binding to beta-catenin (displacement of FITC labeled Axin peptide probe); details: 15 nM full-length β-Catenin, 20 nM FITC labeled Axin peptide probe, 3-fold serial dilution from 5 μM; read-out: bCat EC50
T1 construct: Probe solution (15 nM full-length β-Catenin, 20 nM FITC labeled Axin peptide in buffer)
T1 sequence (P35222 1-781): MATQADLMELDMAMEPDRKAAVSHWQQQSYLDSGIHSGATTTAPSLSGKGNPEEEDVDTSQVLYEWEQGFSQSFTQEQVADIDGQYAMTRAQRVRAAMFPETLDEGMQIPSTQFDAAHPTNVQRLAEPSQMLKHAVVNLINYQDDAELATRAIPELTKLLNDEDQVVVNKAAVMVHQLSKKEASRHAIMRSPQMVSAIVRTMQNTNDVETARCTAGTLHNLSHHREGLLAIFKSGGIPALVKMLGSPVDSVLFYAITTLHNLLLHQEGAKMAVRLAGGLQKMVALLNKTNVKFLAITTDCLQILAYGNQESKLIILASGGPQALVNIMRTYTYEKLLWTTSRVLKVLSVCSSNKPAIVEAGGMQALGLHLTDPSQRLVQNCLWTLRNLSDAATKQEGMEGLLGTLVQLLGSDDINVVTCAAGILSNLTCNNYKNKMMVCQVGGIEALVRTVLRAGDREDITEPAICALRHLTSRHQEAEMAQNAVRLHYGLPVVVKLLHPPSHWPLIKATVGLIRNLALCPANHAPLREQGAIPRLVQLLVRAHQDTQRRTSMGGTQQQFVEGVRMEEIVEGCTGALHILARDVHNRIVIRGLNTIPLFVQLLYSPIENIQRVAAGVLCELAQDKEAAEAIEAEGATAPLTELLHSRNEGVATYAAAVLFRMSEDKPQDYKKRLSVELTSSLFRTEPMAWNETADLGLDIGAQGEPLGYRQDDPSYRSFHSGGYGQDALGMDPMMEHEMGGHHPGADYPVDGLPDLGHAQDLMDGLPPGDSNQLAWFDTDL
Method: Peptide assessment: In one assay for assessing binding to beta-catenin, peptide solutions were prepared in buffer (50 mM Tris pH 8.0, 250 mM NaCl, 2% glycerol, 0.5 mM EDTA, 0.02% w/v sodium azide) using a 3-fold serial dilution from 5 μM. Probe solution (15 nM full-length β-Catenin, 20 nM FITC labeled Axin peptide in buffer ([FAM-PEG1-RRWPR(S5)ILD(S5)HVRRVWR (SEQ ID NO: 44)] where the two S5 residues are stapled, as reported in: Proc Natl Acad Sci USA. 2012 Oct. 30; 109(44):17942-7)) was prepared and incubated for 5 minutes, then 40 μL per well plated in a black polystyrene 384-well plate (Corning). Equal volume of the titrated peptide was added to the plate and incubated protected from light for 15 minutes prior to read. Reads were performed on a Spectramax M5 (Molecular Devices) in duplicate.

[2] = Measurement of LogD (CHI logD by HPLC); format: physicochemical; details: CHI log D, 50 mM ammonium acetate pH 7.4 / acetonitrile gradient, C-18 column, 25° C.
Method: Measurement of LogD: LogD values were measured on a Agilent 1260 HPLC with UV detector (254, 220 nm), using a Gemini NX C-18 50×3 mm column (Phenomenex) with a 6-minute 0-100% mobile phase gradient of A) 50 mM ammonium acetate pH 7.4 and B) Acetonitrile at 25° C. with a flow rate of 1 mL/min and injection volume of 3-5 uL.

With `CC(C)C[C@@H]1NC(=O)[C@H](C)NC(=O)[C@H](C)NC(=O)[C@H](Cc2c[nH]c3ccccc23)NC(=O)[C@H](CCC(=O)O)NC(=O)[C@@H](NC(=O)[C@H](CCCNC(=N)N)NC(=O)[C@H](Cc2c[nH]cn2)NC(=O)[C@@H](NC(=O)[C@H](C)NC(=O)[C@@H]2CCCN2C(=O)[C@H](CC(=O)O)NC(=O)[C@H](C)N)[C@@H](C)O)CSCC(=O)N(C)c2ccc(cc2)N(C)C(=O)CSC[C@@H](C(=O)N[C@@H](CCC(=O)O)C(=O)N[C@@H](CC(C)C)C(=O)N[C@H](C(N)=O)C(C)C)NC(=O)[C@H](Cc2c[nH]cn2)NC1=O` [Compound 31] as the compound, how does the EC50 [1] read?
Its EC50 is over 10 µM.

And the chromatographic logD [2]?
Its chromatographic logD is 0.68.

Which EC50 [1] does the source give for `CC(C)C[C@@H]1NC(=O)[C@H](C)NC(=O)[C@H](C)NC(=O)[C@H](Cc2c[nH]c3ccccc23)NC(=O)[C@H](CCC(=O)O)NC(=O)[C@@H](NC(=O)[C@H](CCCNC(=N)N)NC(=O)[C@H](Cc2c[nH]cn2)NC(=O)[C@@H](NC(=O)[C@H](C)NC(=O)[C@@H]2CCCN2C(=O)[C@H](CC(=O)O)NC(=O)[C@H](C)N)[C@@H](C)O)CSCC(=O)Nc2cc(F)c(cc2F)NC(=O)CSC[C@@H](C(=O)N[C@@H](CCC(=O)O)C(=O)N[C@@H](CC(C)C)C(=O)N[C@H](C(N)=O)C(C)C)NC(=O)[C@H](Cc2c[nH]cn2)NC1=O` [Compound 32] here?
The EC50 was 5.17 µM.

And the chromatographic logD [2]?
Its chromatographic logD is 0.61.

What does the source list for `CC(C)C[C@@H]1NC(=O)[C@H](C)NC(=O)[C@H](C)NC(=O)[C@H](Cc2c[nH]c3ccccc23)NC(=O)[C@H](CCC(=O)O)NC(=O)[C@@H](NC(=O)[C@H](CCCNC(=N)N)NC(=O)[C@H](Cc2c[nH]cn2)NC(=O)[C@@H](NC(=O)[C@H](C)NC(=O)[C@@H]2CCCN2C(=O)[C@H](CC(=O)O)NC(=O)[C@H](C)N)[C@@H](C)O)CSCC(=O)Nc2ccccc2NC(=O)CSC[C@@H](C(=O)N[C@@H](CCC(=O)O)C(=O)N[C@@H](CC(C)C)C(=O)N[C@H](C(N)=O)C(C)C)NC(=O)[C@H](Cc2c[nH]cn2)NC1=O` [Compound 35]?
EC50 [1]: > 10 µM; chromatographic logD [2]: 0.77

With `CC(C)C[C@@H]1NC(=O)[C@H](C)NC(=O)[C@H](C)NC(=O)[C@H](Cc2c[nH]c3ccccc23)NC(=O)[C@H](CCC(=O)O)NC(=O)[C@@H](NC(=O)[C@H](CCCNC(=N)N)NC(=O)[C@H](Cc2c[nH]cn2)NC(=O)[C@@H](NC(=O)[C@H](C)NC(=O)[C@@H]2CCCN2C(=O)[C@H](CC(=O)O)NC(=O)[C@H](C)N)[C@@H](C)O)CSCC(=O)O[C@H]2CC[C@H](CC2)OC(=O)CSC[C@@H](C(=O)N[C@@H](CCC(=O)O)C(=O)N[C@@H](CC(C)C)C(=O)N[C@H](C(N)=O)C(C)C)NC(=O)[C@H](Cc2c[nH]cn2)NC1=O` [Compound 36] as the compound, how does the EC50 [1] read?
Its EC50 is over 10 µM.

And the chromatographic logD [2]?
The chromatographic logD was 0.77.

With `CC(C)C[C@@H]1NC(=O)[C@H](C)NC(=O)[C@H](C)NC(=O)[C@H](Cc2c[nH]c3ccccc23)NC(=O)[C@H](CCC(=O)O)NC(=O)[C@@H](NC(=O)[C@H](CCCNC(=N)N)NC(=O)[C@H](Cc2c[nH]cn2)NC(=O)[C@@H](NC(=O)[C@H](C)NC(=O)[C@@H]2CCCN2C(=O)[C@H](CC(=O)O)NC(=O)[C@H](C)N)[C@@H](C)O)CSCC(=O)O[C@@H]2CC[C@@H](C2)OC(=O)CSC[C@@H](C(=O)N[C@@H](CCC(=O)O)C(=O)N[C@@H](CC(C)C)C(=O)N[C@H](C(N)=O)C(C)C)NC(=O)[C@H](Cc2c[nH]cn2)NC1=O` [Compound 38] as the compound, how does the EC50 [1] read?
The EC50 was over 10 µM.

And the chromatographic logD [2]?
The chromatographic logD was 0.8.

Which EC50 [1] does the source give for `CC(C)C[C@@H]1NC(=O)[C@H](C)NC(=O)[C@H](C)NC(=O)[C@H](Cc2c[nH]c3ccccc23)NC(=O)[C@H](CCC(=O)O)NC(=O)[C@@H](NC(=O)[C@H](CCCNC(=N)N)NC(=O)[C@H](Cc2c[nH]cn2)NC(=O)[C@@H](NC(=O)[C@H](C)NC(=O)[C@@H]2CCCN2C(=O)[C@H](CC(=O)O)NC(=O)[C@H](C)N)[C@@H](C)O)CSCC(=O)O[C@@H]2C=C[C@@H](C2)OC(=O)CSC[C@@H](C(=O)N[C@@H](CCC(=O)O)C(=O)N[C@@H](CC(C)C)C(=O)N[C@H](C(N)=O)C(C)C)NC(=O)[C@H](Cc2c[nH]cn2)NC1=O` [Compound 39] here?
Its EC50 is over 10 µM.

And the chromatographic logD [2]?
Its chromatographic logD is 0.75.

Which chromatographic logD [2] does the source give for `CC[C@H](C)[C@@H]1NC(=O)[C@H](CC(C)C)NC(=O)[C@H](C)NC(=O)[C@H](C)NC(=O)[C@H](Cc2c[nH]cn2)NC(=O)[C@H](CCC(=O)O)NC(=O)[C@@H](NC(=O)[C@H](C)NC(=O)[C@H](Cc2c[nH]c3ccccc23)NC(=O)[C@H](CC(C)C)NC(=O)[C@H](C)NC(=O)[C@@H]2CCCN2C(=O)[C@H](CC(=O)O)NC(=O)[C@H](C)N)CSCC(=O)Nc2cc(Cl)c(cc2Cl)NC(=O)CSC[C@@H](C(=O)N[C@@H](CCC(=O)O)C(=O)N[C@H](C(=O)N[C@@H](CCC(N)=O)C(N)=O)[C@@H](C)O)NC1=O` [Compound 42] (H-ADPALWACEHAALICETQ-NH2; linker 8-15 via X6; N-terminus and C-terminus assumed) here?
The chromatographic logD was 0.84.

For `CC[C@H](C)[C@@H]1NC(=O)[C@H](CC(C)C)NC(=O)[C@H](C)NC(=O)[C@H](C)NC(=O)[C@H](Cc2c[nH]cn2)NC(=O)[C@H](CCC(=O)O)NC(=O)[C@@H](NC(=O)[C@H](C)NC(=O)[C@H](Cc2c[nH]c3ccccc23)NC(=O)[C@H](CC(C)C)NC(=O)[C@H](C)NC(=O)[C@@H]2CCCN2C(=O)[C@H](CC(=O)O)NC(=O)[C@H](C)N)CSCC(=O)Nc2cc(OC)c(cc2OC)NC(=O)CSC[C@@H](C(=O)N[C@@H](CCC(=O)O)C(=O)N[C@H](C(=O)N[C@@H](CCC(N)=O)C(N)=O)[C@@H](C)O)NC1=O` [Compound 43] (H-ADPALWACEHAALICETQ-NH2; linker 8-15 via X8; N-terminus and C-terminus assumed), which chromatographic logD [2] is on record?
The chromatographic logD was 0.75.

With `CC[C@H](C)[C@@H]1NC(=O)[C@H](CC(C)C)NC(=O)[C@H](C)NC(=O)[C@H](C)NC(=O)[C@H](Cc2c[nH]cn2)NC(=O)[C@H](CCC(=O)O)NC(=O)[C@@H](NC(=O)[C@H](C)NC(=O)[C@H](Cc2c[nH]c3ccccc23)NC(=O)[C@H](CC(C)C)NC(=O)[C@H](C)NC(=O)[C@@H]2CCCN2C(=O)[C@H](CC(=O)O)NC(=O)[C@H](C)N)CSCC(=O)Nc2ccccc2NC(=O)CSC[C@@H](C(=O)N[C@@H](CCC(=O)O)C(=O)N[C@H](C(=O)N[C@@H](CCC(N)=O)C(N)=O)[C@@H](C)O)NC1=O` [Compound 44] (H-ADPALWACEHAALICETQ-NH2; linker 8-15 via X3; N-terminus and C-terminus assumed) as the compound, how does the chromatographic logD [2] read?
Its chromatographic logD is 0.7.

For `CC[C@H](C)[C@@H]1NC(=O)[C@H](CC(C)C)NC(=O)[C@H](C)NC(=O)[C@H](C)NC(=O)[C@H](Cc2c[nH]cn2)NC(=O)[C@H](CCC(=O)O)NC(=O)[C@@H](NC(=O)[C@H](C)NC(=O)[C@H](Cc2c[nH]c3ccccc23)NC(=O)[C@H](CC(C)C)NC(=O)[C@H](C)NC(=O)[C@@H]2CCCN2C(=O)[C@H](CC(=O)O)NC(=O)[C@H](C)N)CSCC(=O)O[C@H]2CC[C@H](CC2)OC(=O)CSC[C@@H](C(=O)N[C@@H](CCC(=O)O)C(=O)N[C@H](C(=O)N[C@@H](CCC(N)=O)C(N)=O)[C@@H](C)O)NC1=O` [Compound 45] (H-ADPALWACEHAALICETQ-NH2; linker 8-15 via X4; N-terminus and C-terminus assumed), which chromatographic logD [2] is on record?
The chromatographic logD was 1.03.

For `CC[C@H](C)[C@@H]1NC(=O)[C@H](CC(C)C)NC(=O)[C@H](C)NC(=O)[C@H](C)NC(=O)[C@H](Cc2c[nH]cn2)NC(=O)[C@H](CCC(=O)O)NC(=O)[C@@H](NC(=O)[C@H](C)NC(=O)[C@H](Cc2c[nH]c3ccccc23)NC(=O)[C@H](CC(C)C)NC(=O)[C@H](C)NC(=O)[C@@H]2CCCN2C(=O)[C@H](CC(=O)O)NC(=O)[C@H](C)N)CSCC(=O)O[C@@H]2CCC[C@@H](C2)OC(=O)CSC[C@@H](C(=O)N[C@@H](CCC(=O)O)C(=O)N[C@H](C(=O)N[C@@H](CCC(N)=O)C(N)=O)[C@@H](C)O)NC1=O` [Compound 46] (H-ADPALWACEHAALICETQ-NH2; linker 8-15 via X9; N-terminus and C-terminus assumed), which chromatographic logD [2] is on record?
The chromatographic logD was 0.94.
